ChEMBL document CHEMBL4616641, “4-Hydroxy-3-methylbenzofuran-2-carbohydrazones as novel LSD1 inhibitors” (Bioorg Med Chem Lett, 2020)

Columns and labels:
PC-3 = assay: Antiproliferative activity against human PC3 cells assessed as inhibition of cell growth
MGC-803 = assay: Antiproliferative activity against human MGC803 cells assessed as inhibition of cell growth by MTT assay
U-87 MG = assay: Antiproliferative activity against human U87MG cells assessed as inhibition of cell growth
HT-29 = assay: Antiproliferative activity against human HT-29 cells assessed as inhibition of cell growth
PANC-1 = assay: Antiproliferative activity against human PANC1 cells assessed as inhibition of cell growth
MCF7 = assay: Antiproliferative activity against human MCF7 cells assessed as inhibition of cell growth

| SMILES | IC50 (PC-3) [µM] | IC50 (MGC-803) [µM] | further results |
| --- | --- | --- | --- |
| Cc1c(C(=O)N/N=C\c2cc([N+](=O)[O-])ccc2O)oc2cccc(O)c12 | 17.1 | – | – |
| Cc1c(C(=O)N/N=C\c2cccs2)oc2cccc(O)c12 | 22.3 | – | – |
| Cc1c(C(=O)N/N=C\c2cccc(F)c2)oc2cccc(O)c12 | ≥ 40 | – | – |
| Cc1c(C(=O)N/N=C\c2c(O)cccc2Cl)oc2cccc(O)c12 | 18.7 | – | – |
| Cc1c(C(=O)N/N=C\c2ccncc2)oc2cccc(O)c12 | ≥ 40 | – | – |
| COc1ccccc1/C=N\NC(=O)c1oc2cccc(O)c2c1C | 32.7 | – | – |
| Cc1c(C(=O)N/N=C\c2ccco2)oc2cccc(O)c12 | ≥ 40 | – | – |
| Cc1c(C(=O)N/N=C\c2ccccc2F)oc2cccc(O)c12 | ≥ 40 | – | – |
| COc1cccc(/C=N\NC(=O)c2oc3cccc(O)c3c2C)c1 | ≥ 40 | – | – |
| Cc1c(C(=O)N/N=C\c2cccc(Br)c2O)oc2cccc(O)c12 | 16.6 | 14.2 | – |
| Cc1c(C(=O)N/N=C\c2cccc(F)c2O)oc2cccc(O)c12 | 12.7 | 8.35 | – |
| Cc1c(C(=O)N/N=C\c2ccc(O)cc2)oc2cccc(O)c12 | 21.7 | – | – |
| Cc1c(C(=O)N/N=C\c2cccnc2)oc2cccc(O)c12 | ≥ 40 | – | – |
| Cc1c(C(=O)N/N=C\c2ccccn2)oc2cccc(O)c12 | ≥ 40 | – | – |
| Cc1c(C(=O)N/N=C\c2ccc(F)cc2)oc2cccc(O)c12 | ≥ 40 | – | – |
| Cc1c(C(=O)N/N=C\c2c(O)cccc2F)oc2cccc(O)c12 | 8.05 | 10.8 | IC50 (U-87 MG): 9.27 µM; IC50 (HT-29): 2.2 µM; IC50 (PANC-1): 8.23 µM; IC50 (MCF7): 1.75 µM |
| Cc1c(C(=O)N/N=C\c2ccc(C(F)(F)F)cc2)oc2cccc(O)c12 | ≥ 40 | – | – |
| Cc1c(C(=O)N/N=C\c2cc(Cl)cc(Cl)c2O)oc2cccc(O)c12 | 9.59 | 4.36 | – |
| Cc1c(C(=O)N/N=C\c2ccccc2C(F)(F)F)oc2cccc(O)c12 | 26.2 | – | – |
| Cc1c(C(=O)N/N=C\c2ccccc2)oc2cccc(O)c12 | 29.2 | – | – |

Now from value to molecule, other results behind:

| IC50 (PC-3) [µM] | IC50 (MGC-803) [µM] | SMILES | further results |
| --- | --- | --- | --- |
| 8.35 | 10.6 | Cc1c(C(=O)N/N=C\c2ccccc2O)oc2cccc(O)c12 | – |
| 2.05 | 5.46 | Cc1c(C(=O)N/N=C\c2ccc(Br)cc2O)oc2cccc(O)c12 | – |
| 17.6 | – | Cc1c(C(=O)N/N=C\c2cccc(O)c2)oc2cccc(O)c12 | – |
| 3.17 | 5.23 | Cc1c(C(=O)N/N=C\c2cc(F)ccc2O)oc2cccc(O)c12 | – |
| ≥ 40 | 18.1 | Cc1c(C(=O)N/N=C\c2ccc(O)c(O)c2O)oc2cccc(O)c12 | IC50 (U-87 MG): 5.96 µM; IC50 (HT-29): > 20 µM; IC50 (PANC-1): > 20 µM; IC50 (MCF7): 17.1 µM |
| 3.12 | 4.16 | Cc1c(C(=O)N/N=C\c2cc(Cl)ccc2O)oc2cccc(O)c12 | – |
| 7.35 | 5.99 | Cc1ccc(O)c(/C=N\NC(=O)c2oc3cccc(O)c3c2C)c1 | – |
| 14.8 | 7.33 | Cc1c(C(=O)N/N=C\c2ccc(O)cc2O)oc2cccc(O)c12 | IC50 (U-87 MG): 4.39 µM; IC50 (HT-29): 2.88 µM; IC50 (PANC-1): 9.77 µM; IC50 (MCF7): 2.08 µM |
| 95.5 | – | Cc1c(C(=O)N/N=C\c2cc(O)ccc2O)oc2cccc(O)c12 | – |
| 12.2 | 5.03 | Cc1c(C(=O)N/N=C\c2cccc(O)c2O)oc2cccc(O)c12 | – |
